Reference: patent US7045532B2 (Millennium Pharmaceuticals, Inc., priority 1999, dated 2006)

Assays:
ACE-2 [1] = target: T1, ACE-2 (Homo sapiens, UniProt Q9BYF1); experiment: ACE-2 Competitive Substrate Assay (ACS Assay); type: biochemical; settings: Ki class; compounds tested in 5% DMSO, 12 concentrations; read-out: Human ACE-2 Activity
T1 construct: a stop codon inserted after the serine immediately preceding the transmembrane domain; made in house; host or cells: CHO K1 cells (transient transfection, purified from conditioned medium)

ACE-2 [2] = target: ACE-2 (Rattus norvegicus, UniProt Q5EGZ1); experiment: ACE-2 Competitive Substrate Assay, rat ACE-2; type: biochemical; settings: Ki class; compounds tested in 5% DMSO, 12 concentrations
Protocol: ACE-2 enzymatic activity was assayed in microtitre plates by the following procedure. The ACE-2 assay buffer used contained 50 mM MES (Boehringer-Mannheim), 300 mM NaCl (Sigma) and 0.01% Brij-35 (Pierce Chemical Co.) at pH 6.5.
Reactions were mixed and incubated at 25° C.
The activity of the test compounds was investigated using the procedure outlined above. The compounds were tested in 5% DMSO. Enzyme activity was measured at 12 compound concentrations.

ACE (Sigma, A2580) = target: T2, ACE (Sigma, A2580) (Sus scrofa, UniProt F1RRW5); experiment: ACE enzymatic activity assay; type: biochemical, porcine; settings: Ki class; compounds tested in 5% DMSO, 12 concentrations
T2 construct: ACE from porcine kidney; purchased Sigma A2580; host or cells: porcine kidney
T2 sequence (F1RRW5 34-1309): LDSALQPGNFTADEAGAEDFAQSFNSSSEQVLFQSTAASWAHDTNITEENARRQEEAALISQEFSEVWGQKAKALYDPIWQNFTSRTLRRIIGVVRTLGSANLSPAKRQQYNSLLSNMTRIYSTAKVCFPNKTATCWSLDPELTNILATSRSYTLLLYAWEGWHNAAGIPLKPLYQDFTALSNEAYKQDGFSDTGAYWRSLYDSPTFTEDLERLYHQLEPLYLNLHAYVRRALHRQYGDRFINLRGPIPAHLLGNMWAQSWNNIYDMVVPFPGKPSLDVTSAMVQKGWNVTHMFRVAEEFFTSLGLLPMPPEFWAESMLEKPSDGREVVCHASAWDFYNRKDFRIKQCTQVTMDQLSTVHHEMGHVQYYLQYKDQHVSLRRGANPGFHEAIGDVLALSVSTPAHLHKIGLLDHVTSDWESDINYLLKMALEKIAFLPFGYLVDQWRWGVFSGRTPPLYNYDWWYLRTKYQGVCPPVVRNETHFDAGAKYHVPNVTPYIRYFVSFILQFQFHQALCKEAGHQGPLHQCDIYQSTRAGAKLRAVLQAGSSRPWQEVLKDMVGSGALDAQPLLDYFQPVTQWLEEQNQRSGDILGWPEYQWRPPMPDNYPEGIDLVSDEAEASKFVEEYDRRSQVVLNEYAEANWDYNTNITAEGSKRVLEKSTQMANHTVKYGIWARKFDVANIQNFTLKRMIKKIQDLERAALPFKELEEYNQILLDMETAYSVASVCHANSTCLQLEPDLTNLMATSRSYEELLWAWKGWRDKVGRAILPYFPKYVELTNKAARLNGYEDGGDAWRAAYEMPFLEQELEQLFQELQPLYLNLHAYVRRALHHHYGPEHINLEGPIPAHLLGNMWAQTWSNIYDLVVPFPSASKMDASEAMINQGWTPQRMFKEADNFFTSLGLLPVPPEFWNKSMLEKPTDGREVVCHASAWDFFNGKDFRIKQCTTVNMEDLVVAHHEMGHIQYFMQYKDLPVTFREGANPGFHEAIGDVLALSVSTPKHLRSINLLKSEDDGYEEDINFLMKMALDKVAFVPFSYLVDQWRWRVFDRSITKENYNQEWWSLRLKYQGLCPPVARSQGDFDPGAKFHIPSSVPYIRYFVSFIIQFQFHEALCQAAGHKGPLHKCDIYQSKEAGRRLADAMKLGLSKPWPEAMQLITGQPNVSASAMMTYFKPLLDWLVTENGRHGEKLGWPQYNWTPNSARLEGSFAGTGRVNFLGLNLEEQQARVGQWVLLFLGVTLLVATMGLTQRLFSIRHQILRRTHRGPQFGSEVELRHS
Summary of the method: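 ACE (1 nM final) in 50 mM HEPES, 300 mM NaCl, 0.01% Brij-35, pH 7.5, with compound in 5% DMSO at 12 concentrations, 25 °C. Substrate cleavage run ~30 min, stopped with EDTA; fluorescence read at excitation 320 nm, emission 405 nm.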

Carboxypeptidase A = target: T3, Carboxypeptidase A (Bos taurus, UniProt P00730); experiment: Carboxypeptidase A activity assay; type: biochemical; settings: Ki class; compounds tested in 5% DMSO, 12 concentrations
T3 sequence (P00730 111-419): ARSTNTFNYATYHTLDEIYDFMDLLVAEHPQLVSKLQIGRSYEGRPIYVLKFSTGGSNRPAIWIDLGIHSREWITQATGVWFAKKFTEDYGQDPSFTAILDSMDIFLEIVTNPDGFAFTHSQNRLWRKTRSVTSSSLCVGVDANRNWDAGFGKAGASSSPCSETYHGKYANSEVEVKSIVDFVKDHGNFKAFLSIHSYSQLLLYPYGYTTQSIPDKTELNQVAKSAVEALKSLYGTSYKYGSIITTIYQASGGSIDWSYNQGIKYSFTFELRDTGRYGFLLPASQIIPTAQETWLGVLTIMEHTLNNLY
Summary of the method: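 Bovine carboxypeptidase A activity followed at 328 nm in 5% DMSO, reaction stopped with EDTA. Activity measured at 12 compound concentrations. Ki derived from apparent Ki as Ki=Kiapp/(1+[S]/Km).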

Sequence of ACE-2 (Rattus norvegicus, UniProt Q5EGZ1) (Q5EGZ1 18-805): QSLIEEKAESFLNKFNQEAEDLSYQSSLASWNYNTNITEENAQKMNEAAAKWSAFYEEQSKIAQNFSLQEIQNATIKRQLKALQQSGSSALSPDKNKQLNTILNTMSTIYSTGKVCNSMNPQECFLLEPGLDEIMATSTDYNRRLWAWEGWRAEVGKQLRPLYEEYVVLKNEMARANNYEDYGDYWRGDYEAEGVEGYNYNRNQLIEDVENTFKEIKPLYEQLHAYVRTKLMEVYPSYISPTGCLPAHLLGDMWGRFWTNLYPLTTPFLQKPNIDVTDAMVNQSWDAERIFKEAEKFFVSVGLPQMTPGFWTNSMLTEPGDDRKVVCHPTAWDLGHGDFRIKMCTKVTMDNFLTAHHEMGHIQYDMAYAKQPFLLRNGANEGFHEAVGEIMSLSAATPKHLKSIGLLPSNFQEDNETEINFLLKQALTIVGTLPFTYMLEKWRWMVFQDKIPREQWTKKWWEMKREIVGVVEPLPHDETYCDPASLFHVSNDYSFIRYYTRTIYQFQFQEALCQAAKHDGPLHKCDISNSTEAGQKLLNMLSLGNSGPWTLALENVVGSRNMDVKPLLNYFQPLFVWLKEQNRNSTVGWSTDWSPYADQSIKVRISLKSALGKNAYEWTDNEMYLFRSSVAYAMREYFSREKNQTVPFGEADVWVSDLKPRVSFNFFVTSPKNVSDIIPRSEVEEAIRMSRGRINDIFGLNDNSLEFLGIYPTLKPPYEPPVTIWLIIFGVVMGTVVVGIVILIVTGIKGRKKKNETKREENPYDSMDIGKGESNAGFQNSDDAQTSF
T1 sequence (Q9BYF1 18-740 limits assumed): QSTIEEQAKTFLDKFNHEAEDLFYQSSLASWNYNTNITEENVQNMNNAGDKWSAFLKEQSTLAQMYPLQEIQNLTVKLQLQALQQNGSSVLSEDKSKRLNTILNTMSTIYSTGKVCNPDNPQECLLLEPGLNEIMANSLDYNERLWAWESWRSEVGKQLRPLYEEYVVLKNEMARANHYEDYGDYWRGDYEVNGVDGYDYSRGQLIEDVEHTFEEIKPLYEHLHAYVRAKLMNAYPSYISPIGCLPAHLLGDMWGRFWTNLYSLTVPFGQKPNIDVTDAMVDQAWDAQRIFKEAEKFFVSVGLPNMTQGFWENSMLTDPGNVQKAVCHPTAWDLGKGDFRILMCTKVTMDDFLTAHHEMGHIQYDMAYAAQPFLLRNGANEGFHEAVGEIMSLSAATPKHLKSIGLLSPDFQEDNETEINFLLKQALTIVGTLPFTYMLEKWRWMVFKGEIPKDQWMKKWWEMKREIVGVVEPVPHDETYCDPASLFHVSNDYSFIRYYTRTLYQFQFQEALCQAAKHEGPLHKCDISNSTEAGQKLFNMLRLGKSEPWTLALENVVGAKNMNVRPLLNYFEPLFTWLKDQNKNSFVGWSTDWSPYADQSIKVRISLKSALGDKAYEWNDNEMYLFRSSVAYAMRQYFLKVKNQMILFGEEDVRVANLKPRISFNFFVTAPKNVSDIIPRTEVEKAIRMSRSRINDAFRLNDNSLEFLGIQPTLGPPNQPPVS

Compound	Ki (ACE-2 [1]) [nM]	Ki (ACE-2 [2]) [nM]	Ki (ACE (Sigma, A2580)) [nM]	Ki (Carboxypeptidase A) [nM]
COC(=O)[C@H](CC(C)C)NCC(=O)c1ccc(-c2ccccc2)cc1 [DH, 2-(2-Biphenyl-4-yl-2-oxo-ethylamino)-4-methyl-pentanoic acid methylester]	> 500	> 500	> 50000	> 50000
COC(=O)[C@H](CC(C)C)NCC(=O)[C@H](Cc1ccccc1)NC(=O)OCc1ccccc1 [DI, 2-(3-Benzyloxycarbonylamino-2-oxo-4-phenyl-butylamino)-4-methyl-pentanoic acid methylester]	> 500	> 500	> 50000	10000 to 50000
O=C(O)C(CCc1ccccc1)N[C@@H](Cc1c[nH]cn1)C(=O)O (stereo partly shown) [DP, 2-[1-Carboxy-2-(1H-imidazol-4-yl)-ethylamino]4-phenyl-butync acid]	> 500	100 to 500	10000 to 50000	> 50000
CC(C)CC(CS)C(=O)O (stereo not shown) [DQ, 2-Mercaptomethyl-4-methyl-pentanoic acid]	> 500	100 to 500	> 50000	> 50000
O=C(O)[C@H](CC#Cc1ccccc1)N[C@@H](CCc1ccccc1)C(=O)O [DS, 2-(1-Carboxy-3-phenyl-propylamino)-5-phenyl-pent-4-ynoic acid]	> 500	100 to 500	> 50000	10000 to 50000
CC(C)CC(N[C@@H](Cc1cncn1COCc1ccccc1)C(=O)O)C(=O)O (stereo partly shown) [DX, 2-[2-(3-Benzyloxymethyl-3H-imidazol-4-yl)-1-carboxy-ethylamino]-4-methyl-pentanoic acid]	100 to 500	100 to 500	> 50000	> 50000
CC(C)C[C@H](N[C@H](CCc1ccccc1)C(=O)O)C(=O)O [E, 2-(1-Carboxy-3-phenyl-propylamino)-4-methyl-pentanoic acid]	> 500	> 500	> 50000	> 50000
O=C(O)[C@H](CC#Cc1ccccn1)N[C@@H](CCc1ccccc1)C(=O)O [EA, 2-(1-Carboxy-3-phenyl-propylamino)-5-pyridin-2-yl-pent-4-ynoic acid]	> 500	100 to 500	> 50000	< 10000
O=C(O)[C@H](CC#Cc1ccccn1)N[C@H](CCc1ccccc1)C(=O)O [EB, 2-(1-Carboxy-3-phenyl-propylamino)-5-pyridin-2-yl-pent-4-ynoic acid]	> 500	> 500	> 50000	10000 to 50000
CC(C)CC(N[C@@H](Cc1cn(Cc2ccc(Cl)cc2)cn1)C(=O)O)C(=O)O (stereo partly shown) [EC, 2-{1-Carboxy-2-[1-(4-chloro-benzyl}-1H-imidazol-4-yl]-ethylamino)4-methyl-pentanoic acid]	> 500	> 500	10000 to 50000	< 10000
CC(C)CC(N[C@H](CC(=O)O)Cc1ccco1)C(=O)O (stereo partly shown) [EH, 2-(1-Carboxymethyl-2-furan-2-yl-ethylamino)-4-methyl-pentanoic acid]	> 500	> 500	> 50000	> 50000
CC(C)CC(N[C@@H](Cc1cn(Cc2ccc(C(F)(F)F)cc2)cn1)C(=O)O)C(=O)O (stereo partly shown) [EL, 2-{1-Carboxy-2-[1-(4-trifluoromethyl-benzyl)-1H-imidazol-4-yl}-ethylamino]4-methyl-pentanoic acid]	> 500	100 to 500	> 50000	10000 to 50000
COc1ccc(Cn2cnc(C[C@H](NC(CC(C)C)C(=O)O)C(=O)O)c2)cc1 (stereo partly shown) [EM, 2-[1-Carboxy-2-[1-(4-methoxy-benzyl)-1H-imidazol-4-yl]-ethylamino)4-methyl-pentanoic acid]	> 500	> 500	> 50000	> 50000
